Assay results: PubChem BioAssay AID2060616 (Molecular Pharmacology Branch, DTP, NCI, 2025)

System: 377384-186-R-J1-PDC complex spheroid viability
Assay: Anticancer human tumor 377384-186-R-J1-PDC patient-derived pancreatic carcinoma cell line growth inhibition [CLK]
Details: for IC50: curve of first compound; for viability, T/C: stronger effect = lower value; active = viability on the fitted dose curve at most 10% of control; inactive = the rest
In short: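 Patient-derived tumor cells grown as complex spheroids with HUVEC endothelial cells and mesenchymal stem cells, treated with drug combinations. Concentrations descend in half-log steps from near clinical Cmax, or from 10 microM if Cmax unknown.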

[1] = second compound 0.0316 µM, first compound 0.0316 µM
[2] = second compound 0.0316 µM, first compound 0.1 µM
[3] = second compound 0.0316 µM, first compound 0.316 µM
[4] = second compound 0.0316 µM, first compound 1 µM
[5] = second compound 0.0316 µM, first compound 3.16 µM
[6] = second compound 0.0316 µM, first compound 10 µM
[7] = second compound 0.1 µM, first compound 0.0316 µM
[8] = second compound 0.1 µM, first compound 0.1 µM
[9] = second compound 0.1 µM, first compound 0.316 µM
[10] = second compound 0.1 µM, first compound 1 µM
[11] = second compound 0.1 µM, first compound 3.16 µM
[12] = second compound 0.1 µM, first compound 10 µM
[13] = second compound 0.316 µM, first compound 0.0316 µM
[14] = second compound 0.316 µM, first compound 0.1 µM
[15] = second compound 0.316 µM, first compound 0.316 µM
[16] = second compound 0.316 µM, first compound 1 µM
[17] = second compound 0.316 µM, first compound 3.16 µM
[18] = second compound 0.316 µM, first compound 10 µM
[19] = second compound 1 µM, first compound 0.0316 µM
[20] = second compound 1 µM, first compound 0.1 µM
[21] = second compound 1 µM, first compound 0.316 µM
[22] = second compound 1 µM, first compound 1 µM
[23] = second compound 1 µM, first compound 3.16 µM
[24] = second compound 1 µM, first compound 10 µM
[25] = second compound 3.16 µM, first compound 0.0316 µM
[26] = second compound 3.16 µM, first compound 0.1 µM
[27] = second compound 3.16 µM, first compound 0.316 µM
[28] = second compound 3.16 µM, first compound 1 µM
[29] = second compound 3.16 µM, first compound 3.16 µM
[30] = second compound 3.16 µM, first compound 10 µM
[31] = second compound 10 µM, first compound 0.0316 µM
[32] = second compound 10 µM, first compound 0.1 µM
[33] = second compound 10 µM, first compound 0.316 µM
[34] = second compound 10 µM, first compound 1 µM
[35] = second compound 10 µM, first compound 3.16 µM
[36] = second compound 10 µM, first compound 10 µM
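Also: spheroids exposed to agents for 7 days before reading.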
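For viability, T/C in this document: luminescence signal used as a stand-in for viable cells.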

C=CC(=O)Nc1cc(Nc2nccc(-c3cn(C)c4ccccc34)n2)c(OC)cc1N(C)CCN(C)C + CNC(=O)c1ccc(Nc2nc(OC3CCCC3)c3c(-c4ccc5nc(C)oc5c4)c[nH]c3n2)c(OC)c1
53.1 nM: IC50 (second compound 0.1 µM)
inactive: viability, T/C (second compound 0.0316 µM, first compound 0.000949 µM) 91.5% | viability, T/C (second compound 0.0316 µM, first compound 0.003 µM) 109% | viability, T/C (second compound 0.0316 µM, first compound 0.00949 µM) 99.2% | viability, T/C (second compound 0.0316 µM, first compound 0.03 µM) 103% | viability, T/C (second compound 0.0316 µM, first compound 0.0949 µM) 86.3% | viability, T/C (second compound 0.0316 µM, first compound 0.3 µM) 59% | viability, T/C (second compound 0.1 µM, first compound 0.000949 µM) 64.1% | viability, T/C (second compound 0.1 µM, first compound 0.003 µM) 63.5% | viability, T/C (second compound 0.1 µM, first compound 0.00949 µM) 55.7% | viability, T/C (second compound 0.1 µM, first compound 0.03 µM) 59.4% | viability, T/C (second compound 0.1 µM, first compound 0.0949 µM) 42.8% | viability, T/C (second compound 0.1 µM, first compound 0.3 µM) 29.7% | viability, T/C (second compound 0.316 µM, first compound 0.000949 µM) 20.6% | viability, T/C (second compound 0.316 µM, first compound 0.003 µM) 23.6% | viability, T/C (second compound 0.316 µM, first compound 0.00949 µM) 20.6% | viability, T/C (second compound 0.316 µM, first compound 0.03 µM) 17.2% | viability, T/C (second compound 0.316 µM, first compound 0.0949 µM) 17.3% | viability, T/C (second compound 0.316 µM, first compound 0.3 µM) 17% | viability, T/C (second compound 1 µM, first compound 0.000949 µM) 17.7% | viability, T/C (second compound 1 µM, first compound 0.003 µM) 18.1% | viability, T/C (second compound 1 µM, first compound 0.00949 µM) 21.8% | viability, T/C (second compound 1 µM, first compound 0.03 µM) 19.2% | viability, T/C (second compound 1 µM, first compound 0.0949 µM) 16.7% | viability, T/C (second compound 1 µM, first compound 0.3 µM) 16.7% | viability, T/C (second compound 3.16 µM, first compound 0.000949 µM) 20.1% | viability, T/C (second compound 3.16 µM, first compound 0.003 µM) 20.9% | viability, T/C (second compound 3.16 µM, first compound 0.00949 µM) 21.1% | viability, T/C (second compound 3.16 µM, first compound 0.03 µM) 19.5% | viability, T/C (second compound 3.16 µM, first compound 0.0949 µM) 17.9% | viability, T/C (second compound 3.16 µM, first compound 0.3 µM) 14.8% | viability, T/C (second compound 10 µM, first compound 0.000949 µM) 18.9% | viability, T/C (second compound 10 µM, first compound 0.003 µM) 21.2% | viability, T/C (second compound 10 µM, first compound 0.00949 µM) 18.1% | viability, T/C (second compound 10 µM, first compound 0.03 µM) 19.4% | viability, T/C (second compound 10 µM, first compound 0.0949 µM) 17.6% | viability, T/C (second compound 10 µM, first compound 0.3 µM) 15.3%
< 0.949 nM: IC50 (second compound 0.316 µM) | IC50 (second compound 1 µM) | IC50 (second compound 3.16 µM) | IC50 (second compound 10 µM)
> 300 nM: IC50 (second compound 0.0316 µM)

CC(Nc1ccc2c(c1)OCCn1cc(N3C(=O)OCC3C(F)F)nc1-2)C(N)=O (stereo not drawn) + CNC(=O)c1ccc(Nc2nc(OC3CCCC3)c3c(-c4ccc5nc(C)oc5c4)c[nH]c3n2)c(OC)c1
221 nM: IC50 (second compound 0.1 µM)
inactive: viability, T/C [1] 84.8% | viability, T/C [2] 90.6% | viability, T/C [3] 71.2% | viability, T/C [4] 49.1% | viability, T/C [5] 41.6% | viability, T/C [6] 41.2% | viability, T/C [7] 59% | viability, T/C [8] 61.5% | viability, T/C [9] 41.7% | viability, T/C [10] 42.8% | viability, T/C [11] 33.4% | viability, T/C [12] 29% | viability, T/C [13] 21.1% | viability, T/C [14] 20.5% | viability, T/C [15] 18.4% | viability, T/C [16] 15% | viability, T/C [17] 13.5% | viability, T/C [18] 14% | viability, T/C [19] 18.1% | viability, T/C [20] 14.4% | viability, T/C [21] 14.4% | viability, T/C [22] 14.8% | viability, T/C [23] 12.8% | viability, T/C [24] 12.6% | viability, T/C [25] 17.7% | viability, T/C [26] 18.5% | viability, T/C [27] 18% | viability, T/C [28] 14.2% | viability, T/C [29] 13.1% | viability, T/C [30] 11.8% | viability, T/C [31] 16.1% | viability, T/C [32] 17.5% | viability, T/C [33] 14.1% | viability, T/C [34] 15.6% | viability, T/C [35] 13.4% | viability, T/C [36] 11.6%
< 31.6 nM: IC50 (second compound 0.316 µM) | IC50 (second compound 1 µM) | IC50 (second compound 3.16 µM) | IC50 (second compound 10 µM)
905 nM: IC50 (second compound 0.0316 µM)

CCN1CCN(Cc2ccc(Nc3ncc(F)c(-c4cc(F)c5nc(C)n(C(C)C)c5c4)n3)nc2)CC1 + CNC(=O)c1ccc(Nc2nc(OC3CCCC3)c3c(-c4ccc5nc(C)oc5c4)c[nH]c3n2)c(OC)c1
299 nM: IC50 (second compound 0.0316 µM)
< 3.16 nM: IC50 (second compound 0.316 µM) | IC50 (second compound 1 µM) | IC50 (second compound 3.16 µM) | IC50 (second compound 10 µM)
17.4 nM: IC50 (second compound 0.1 µM)
inactive: viability, T/C (second compound 0.0316 µM, first compound 0.00316 µM) 105% | viability, T/C (second compound 0.0316 µM, first compound 0.01 µM) 84.2% | viability, T/C [1] 80% | viability, T/C [2] 66.7% | viability, T/C [3] 44.6% | viability, T/C [4] 37.4% | viability, T/C (second compound 0.1 µM, first compound 0.00316 µM) 58.9% | viability, T/C (second compound 0.1 µM, first compound 0.01 µM) 53.9% | viability, T/C [7] 45.8% | viability, T/C [8] 41.1% | viability, T/C [9] 34.4% | viability, T/C [10] 29.3% | viability, T/C (second compound 0.316 µM, first compound 0.00316 µM) 19.5% | viability, T/C (second compound 0.316 µM, first compound 0.01 µM) 18.5% | viability, T/C [13] 21.5% | viability, T/C [14] 19.9% | viability, T/C [15] 24.6% | viability, T/C [16] 22.4% | viability, T/C (second compound 1 µM, first compound 0.00316 µM) 18.6% | viability, T/C (second compound 1 µM, first compound 0.01 µM) 23.3% | viability, T/C [19] 20.4% | viability, T/C [20] 20.8% | viability, T/C [21] 20.1% | viability, T/C [22] 23.3% | viability, T/C (second compound 3.16 µM, first compound 0.00316 µM) 20.1% | viability, T/C (second compound 3.16 µM, first compound 0.01 µM) 22.1% | viability, T/C [25] 19.7% | viability, T/C [26] 18.9% | viability, T/C [27] 18.9% | viability, T/C [28] 18.7% | viability, T/C (second compound 10 µM, first compound 0.00316 µM) 20.3% | viability, T/C (second compound 10 µM, first compound 0.01 µM) 18% | viability, T/C [31] 16.9% | viability, T/C [32] 17.8% | viability, T/C [33] 22% | viability, T/C [34] 25.9%

Nc1ccccc1NC(=O)c1ccc(CNC(=O)OCc2cccnc2)cc1 + CNC(=O)c1ccc(Nc2nc(OC3CCCC3)c3c(-c4ccc5nc(C)oc5c4)c[nH]c3n2)c(OC)c1
128 nM: IC50 (second compound 0.1 µM)
active: viability, T/C [6] 1.2% | viability, T/C [12] 1.53% | viability, T/C [17] 9.99% | viability, T/C [18] 1.4% | viability, T/C [24] 1.83% | viability, T/C [29] 12.1% | viability, T/C [30] 0.82% | viability, T/C [36] 1.29%
inactive: viability, T/C [1] 94.4% | viability, T/C [2] 75.5% | viability, T/C [3] 62.5% | viability, T/C [4] 26.7% | viability, T/C [5] 11.9% | viability, T/C [7] 57.9% | viability, T/C [8] 57.2% | viability, T/C [9] 35.9% | viability, T/C [10] 30.2% | viability, T/C [11] 12.3% | viability, T/C [13] 24.8% | viability, T/C [14] 23.2% | viability, T/C [15] 18% | viability, T/C [16] 19.4% | viability, T/C [19] 22.6% | viability, T/C [20] 23% | viability, T/C [21] 19.7% | viability, T/C [22] 21.5% | viability, T/C [23] 12.6% | viability, T/C [25] 20.9% | viability, T/C [26] 21.6% | viability, T/C [27] 21.7% | viability, T/C [28] 16.9% | viability, T/C [31] 20.6% | viability, T/C [32] 22.9% | viability, T/C [33] 19% | viability, T/C [34] 18.6% | viability, T/C [35] 13.7%
434 nM: IC50 (second compound 0.0316 µM)
< 31.6 nM: IC50 (second compound 0.316 µM) | IC50 (second compound 1 µM) | IC50 (second compound 3.16 µM) | IC50 (second compound 10 µM)
